Data taken from PMC8552302 (Journal of medicinal chemistry, 2021).

Assays:
mMC3R = mMC3R (Mus musculus, UniProt P33033); assay: β-galactosidase cAMP reporter agonist assay, mMC3R; details: read-out: efficacy at the mMC3R compared to the maximal response of α-MSH
[1] = rhesus monkey, in vivo; cited from earlier work

Sequence of mMC3R (P33033 whole entry): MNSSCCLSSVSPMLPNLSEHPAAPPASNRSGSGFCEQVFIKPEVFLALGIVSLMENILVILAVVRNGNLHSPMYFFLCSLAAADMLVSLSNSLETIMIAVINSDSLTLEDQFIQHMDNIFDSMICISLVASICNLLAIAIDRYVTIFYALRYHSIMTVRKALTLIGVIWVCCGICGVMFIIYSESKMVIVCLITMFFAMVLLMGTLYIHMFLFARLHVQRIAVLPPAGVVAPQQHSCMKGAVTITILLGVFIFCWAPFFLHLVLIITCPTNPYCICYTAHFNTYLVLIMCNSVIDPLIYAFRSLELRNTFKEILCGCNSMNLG

Compound | Emax (mMC3R) | effect on heart rate and blood pressure [1]
O=C(NC(Cc1ccc(Cl)cc1)C(=O)N1CCC(Cn2cncn2)(C2CCCCC2)CC1)[C@H]1Cc2ccccc2CN1 (stereo in doubt) [THIQ, N-[(3R)-1,2,3,4-tetrahydroisoquinolinium-3-ylcarbonyl]-(1R)-1-(4-chlorobenzyl)2-[4-cyclohexyl-4-(1H-1,2,4-triazol-1-ylmethyl)piperidin-1-yl]-2-oxoethylamine] | 90 to 95% | –
Ac-DArg-c[Cys-Glu-His-DPhe-Arg-Trp-Cys-NH2 [LY2112688] | – | significantly increased heart rate and blood pressure
